Here are results for 14 compounds from ChEMBL document CHEMBL1129443, “Inactivation of S-adenosyl-L-homocysteine hydrolase by amide and ester derivatives of adenosine-5'-carboxylic acid” (J Med Chem, 1996).

SMILES strings stand for the structures. pKi: −log10 of the molar value.

In test [1] the target is T1, Adenosylhomocysteinase (Homo sapiens, UniProt P23526). The test can be described thus: Inhibition of S-adenosyl-L-homocysteine hydrolase, inactivation rate constant.
Target sequence in this assay (P23526 whole entry): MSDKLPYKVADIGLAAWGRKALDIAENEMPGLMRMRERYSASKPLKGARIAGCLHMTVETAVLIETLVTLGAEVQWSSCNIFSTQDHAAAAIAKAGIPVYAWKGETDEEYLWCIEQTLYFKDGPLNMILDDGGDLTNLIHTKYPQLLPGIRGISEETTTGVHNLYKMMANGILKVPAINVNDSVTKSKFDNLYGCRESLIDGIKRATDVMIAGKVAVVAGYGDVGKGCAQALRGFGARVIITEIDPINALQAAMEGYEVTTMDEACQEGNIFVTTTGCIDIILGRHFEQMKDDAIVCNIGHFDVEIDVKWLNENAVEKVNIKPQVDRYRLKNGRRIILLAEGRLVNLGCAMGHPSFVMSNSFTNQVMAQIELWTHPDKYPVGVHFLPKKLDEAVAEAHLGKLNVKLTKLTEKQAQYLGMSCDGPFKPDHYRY
In test [2] the target is T1, Adenosylhomocysteinase.
Target sequence in this assay (P23526 2-432 limits assumed): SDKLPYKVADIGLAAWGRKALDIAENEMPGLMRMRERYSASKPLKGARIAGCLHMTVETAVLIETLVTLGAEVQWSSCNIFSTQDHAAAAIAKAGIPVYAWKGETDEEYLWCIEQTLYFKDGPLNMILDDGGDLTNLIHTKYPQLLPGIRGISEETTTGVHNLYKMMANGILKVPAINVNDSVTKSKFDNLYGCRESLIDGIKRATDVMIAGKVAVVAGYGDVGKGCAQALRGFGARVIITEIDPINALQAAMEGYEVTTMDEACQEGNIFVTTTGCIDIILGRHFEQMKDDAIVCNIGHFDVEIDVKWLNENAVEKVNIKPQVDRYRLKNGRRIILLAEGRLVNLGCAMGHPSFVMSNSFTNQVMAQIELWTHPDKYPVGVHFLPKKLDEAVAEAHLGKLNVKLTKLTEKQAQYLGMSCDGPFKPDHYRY
Description: Inhibition of S-adenosyl-L-homocysteine hydrolase, dissociation constant.

Broadly, the pKi is the Ki on a negative log10 scale, so that one unit is a factor of ten. Turning to `Nc1ncnc2c1ncn2C1O[C@H](C(=O)NCc2ccccc2)[C@@H](O)[C@H]1O` (stereo partly drawn), at Adenosylhomocysteinase [1], the pKi is 4.36. For the same compound, on Adenosylhomocysteinase [2], the K2 amounted to 0.03 min⁻¹.

For the compound `CCCCNC(=O)[C@H]1OC(n2cnc3c(N)ncnc32)[C@H](O)[C@@H]1O` (stereo partly drawn), at Adenosylhomocysteinase [1], the pKi was 4.70. Also, the K2 on Adenosylhomocysteinase [2] worked out at 0.03 min⁻¹.

On Adenosylhomocysteinase [1], `CC(C)COC(=O)[C@H]1OC(n2cnc3c(N)ncnc32)[C@H](O)[C@@H]1O` (stereo partly drawn) had a pKi of 6.24. Also, the K2 at Adenosylhomocysteinase [2] was determined as 0.077 min⁻¹.

As for `Nc1ncnc2c1ncn2[C@@H]1O[C@H](C(=O)O)[C@@H](O)[C@H]1O` [5'-CARBOXY ADENOSINE], the negative logarithm of the Ki (pKi) on Adenosylhomocysteinase [1] was 6.39. The compound also displayed a K2 at Adenosylhomocysteinase [2] of 0.045 min⁻¹.

With `Nc1ncnc2c1ncn2[C@@H]1O[C@H](C=O)[C@@H](O)[C@H]1O`, the pKi at Adenosylhomocysteinase [1] was 7.41. Besides, the K2 at Adenosylhomocysteinase [2] is 0.65 min⁻¹.

In the case of `NC(=O)[C@H]1OC(n2cnc3c(N)ncnc32)[C@H](O)[C@@H]1O` (stereo partly drawn), the negative-log Ki (pKi) at Adenosylhomocysteinase [1] is 5.59. This compound showed a K2 on Adenosylhomocysteinase [2] of 0.1 min⁻¹.

In the case of `CCN(CC)C(=O)[C@H]1OC(n2cnc3c(N)ncnc32)[C@H](O)[C@@H]1O` (stereo partly drawn), on Adenosylhomocysteinase [1], the negative-log Ki (pKi) was 6.24. The compound also came in with a K2 at Adenosylhomocysteinase [2] of 0.05 min⁻¹.

For the compound `CC(C)OC(=O)[C@H]1OC(n2cnc3c(N)ncnc32)[C@H](O)[C@@H]1O` (stereo partly drawn), the pKi at Adenosylhomocysteinase [1] is 6.11. Moreover, the K2 on Adenosylhomocysteinase [2] came to 0.064 min⁻¹.

On to `Nc1ncnc2c1ncn2C1O[C@H](C(=O)OCc2ccccc2)[C@@H](O)[C@H]1O` (stereo partly drawn), for which, at Adenosylhomocysteinase [1], the pKi is 6.44. Moreover, the K2 on Adenosylhomocysteinase [2] came out at 0.017 min⁻¹.

As to `Nc1ncnc2c1ncn2C1O[C@H](C(=O)OCCCl)[C@@H](O)[C@H]1O` (stereo partly drawn), the pKi on Adenosylhomocysteinase [1] is 6.49. Besides, the K2 at Adenosylhomocysteinase [2] worked out at 0.35 min⁻¹.

Consider `CCCCOC(=O)[C@H]1OC(n2cnc3c(N)ncnc32)[C@H](O)[C@@H]1O` (stereo partly drawn), for which the pKi on Adenosylhomocysteinase [1] is 6.15. This compound returned a K2 on Adenosylhomocysteinase [2] of 0.11 min⁻¹.

`CNC(=O)[C@H]1O[C@@H](n2cnc3c(N)ncnc32)[C@H](O)[C@@H]1O` gave a negative logarithm of the Ki (pKi) at Adenosylhomocysteinase [1] of 5.71. Besides, the K2 on Adenosylhomocysteinase [2] is 0.095 min⁻¹.

Turning to `COC(=O)[C@H]1O[C@@H](n2cnc3c(N)ncnc32)[C@H](O)[C@@H]1O`, the negative-log Ki (pKi) on Adenosylhomocysteinase [1] is 5.77. In addition, the K2 on Adenosylhomocysteinase [2] amounted to 0.78 min⁻¹.

On Adenosylhomocysteinase [1], `Nc1ncnc2c1ncn2C1O[C@H](C(=O)Nc2ccccc2)[C@@H](O)[C@H]1O` (stereo partly drawn) had a negative-log Ki (pKi) of 4.31. At Adenosylhomocysteinase [2], this compound gave a K2 of 0.028 min⁻¹.
